One test deals with T1, human 11β-HSD1 (Homo sapiens, UniProt P28845).
T1 construct: 100 ug/ml human/mouse liver microsomes; from tissue; host or cells: human liver microsomes
The test is described as follows: Enzyme activity analysis on human 11β-HSD1 (HTRF cortisol, liver microsomes). The class given is biochemical. As to conditions: first value of cell. In short, it runs like this:
(§1)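 Cortisol generated by mouse or human liver microsome 11β-HSD1 during 2 h at 37° C., measured by HTRF competition (cryptate anti-cortisol antibody, d2-cortisol, 2 h room temperature) against a cortisol standard curve. IC50 from percent inhibition versus no-compound control.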
(Time-resolved FRET reads energy transfer from a long-lived donor to a nearby acceptor.)

In the next test the target is T2, mouse 11β-HSD1 (Mus musculus, UniProt P50172).
T2 construct: 100 ug/ml human/mouse liver microsomes; from tissue; host or cells: mouse liver microsomes
T2 sequence (P50172 whole entry): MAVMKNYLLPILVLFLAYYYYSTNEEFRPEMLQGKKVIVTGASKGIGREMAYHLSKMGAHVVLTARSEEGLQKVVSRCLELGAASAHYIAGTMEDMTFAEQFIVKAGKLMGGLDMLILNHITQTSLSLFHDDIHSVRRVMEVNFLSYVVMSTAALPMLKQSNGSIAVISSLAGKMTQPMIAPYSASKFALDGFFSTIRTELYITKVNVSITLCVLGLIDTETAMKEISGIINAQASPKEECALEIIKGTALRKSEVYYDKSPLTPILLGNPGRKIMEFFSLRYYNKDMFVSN
The test is described as follows: Enzyme activity analysis on mouse 11β-HSD1 (HTRF cortisol, liver microsomes). It counts as biochemical. Conditions: second value of cell. In short, it runs like this:
as §1

SMILES strings stand for the structures.

T1 sequence (P28845 whole entry): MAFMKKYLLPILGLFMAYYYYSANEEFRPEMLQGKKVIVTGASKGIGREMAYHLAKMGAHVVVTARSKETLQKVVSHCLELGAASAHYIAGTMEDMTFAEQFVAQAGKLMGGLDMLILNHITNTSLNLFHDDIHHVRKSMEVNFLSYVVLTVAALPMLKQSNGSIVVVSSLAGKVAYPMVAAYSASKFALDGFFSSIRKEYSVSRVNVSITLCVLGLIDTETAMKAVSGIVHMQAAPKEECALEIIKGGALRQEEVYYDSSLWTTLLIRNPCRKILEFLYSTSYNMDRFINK

On to `COc1ccc(S(=O)(=O)NC(C)(C)C(=O)NC2C3CC4CC2CC(O)(C4)C3)cc1` (stereo not drawn) [compound 71, N-(5-hydroxyadamantane-2-yl)-2-methyl-2-(4-methoxyphenylsulfonamido)propanamide], for which the IC50 (in general, the concentration that gives 50% inhibition) against human 11β-HSD1 came to 0.196 µM; at mouse 11β-HSD1, 0.631 µM.
The corresponding values for `Cc1c(Cl)cccc1S(=O)(=O)NC(C)(C)C(=O)NC1C2CC3CC(C2)CC1C3` (stereo not drawn) [compound 7, N-(adamantane-2-yl)-2-methyl-2-(3-chloro-2methylphenylsulfonamido)propanamide] are 0.08 µM and 0.33 µM.
With `CC(C)(NS(=O)(=O)c1ccc(F)cc1Cl)C(=O)NC1C2CC3CC1CC(O)(C3)C2` (stereo not drawn) [compound 80, N-(5-hydroxyadamantane-2-yl)-2-methyl-2-(4-fluoro-2-chlorophenylsulfonamido)propan amide], the half-inhibitory concentration (IC50) against human 11β-HSD1 came out at 0.072 µM; against mouse 11β-HSD1 it was 0.213 µM.
The corresponding values for `CC(C)(NS(=O)(=O)c1cc(C(F)(F)F)ccc1Br)C(=O)NC1C2CC3CC1CC(C(N)=O)(C3)C2` (stereo not drawn) [compound 110, N-4-(2-(2-bromo-5-trifluoromethylphenylsulfonamido)-2-methylpropanamido)adamantane-1-carboxyamide] are 0.014 µM and 0.556 µM.
The corresponding values for `CC(C)(NS(=O)(=O)Cc1ccccc1Cl)C(=O)NC1C2CC3CC1CC(C(N)=O)(C3)C2` (stereo not drawn) [compound 98, N-4-(2-((2-chlorophenyl)methylsulfonamido)-2-methylpropanamido)adamantane-1-carboxyamide] are > 2.5 µM and > 2.5 µM.
`CC(C)(NS(=O)(=O)c1c(F)cccc1F)C(=O)NC1C2CC3CC(C2)CC1C3` (stereo not drawn) [compound 41, N-(adamantane-2-yl)-2-methyl-2-(2,6-difluorophenylsulfonamido)propanamide]: the half-inhibitory concentration (IC50) at human 11β-HSD1 was determined as 0.041 µM; on mouse 11β-HSD1, 0.156 µM.
As to `Cc1c(Cl)cccc1S(=O)(=O)N(C)C(C)(C)C(=O)NC1C2CC3CC1CC(O)(C3)C2` (stereo not drawn) [compound 204, N-(5-hydroxyadamantane-2-yl)-2-(2-methyl-3-chloro-N-methylphenylsulfonamido)-2-methylpropanamide], the concentration for half-maximal inhibition (IC50) on human 11β-HSD1 worked out at 0.004 µM; on mouse 11β-HSD1 it was 0.042 µM.
The corresponding values for `NC(=O)C12CC3CC(C1)C(NC(=O)C1(NS(=O)(=O)c4cc(Cl)c(Cl)cc4Cl)CCC1)C(C3)C2` (stereo not drawn) [compound 161, N-4-(1-(2,4,5-trichlorophenylsulfonamido)cyclobutanecarboxyamido)adamantane-1-carboxyamide] are 0.052 µM and 0.428 µM.
The corresponding values for `Cc1ccc(F)c(S(=O)(=O)NC(C)(C)C(=O)NC2C3CC4CC2CC(C(N)=O)(C4)C3)c1` (stereo not drawn) [compound 94, N-4-(2-(2-fluoro-5-methylphenylsulfonamido)-2-methylpropanamido)adamantane-1-carboxyamide] are 0.013 µM and 0.123 µM.
Regarding `COc1cccc(F)c1S(=O)(=O)N(C)C(C)(C)C(=O)NC1C2CC3CC1CC(C(N)=O)(C3)C2` (stereo not drawn) [compound 194, N-4-(2-(2-methoxy-6-fluoro-N-methylphenylsulfonamido)-2-methylpropanamido)adamantane-1-carboxyamide], the IC50 against human 11β-HSD1 amounted to 0.012 µM; at mouse 11β-HSD1 it was 0.006 µM.
The corresponding values for `NC(=O)C12CC3CC(C1)C(NC(=O)C1(NS(=O)(=O)c4ccccc4[N+](=O)[O-])CCC1)C(C3)C2` (stereo not drawn) [compound 145, N-4-(1-(2-nitrophenylsulfonamido)cyclobutanecarboxyamido)adamantane-1-carboxyamide] are 0.08 µM and 0.509 µM.
Turning to `Cc1c(Cl)cccc1S(=O)(=O)NC1(C(=O)NC2C3CC4CC2CC(C(N)=O)(C4)C3)CCCC1` (stereo not drawn) [compound 167, N-4-(1-(3-chloro-2-methylphenylsulfonamido)cyclopentanecarboxyamido)adamantane-1-carboxyamide], the values for the 50% inhibitory concentration (IC50) against human 11β-HSD1 and on mouse 11β-HSD1 were 0.008 µM and 0.016 µM, respectively.

The values are drawn from patent publication US9073830B2 (Hyundai Pharm Co., Ltd., priority 2011, dated 2015).
